This is an account of results in patent US12629358B2, “Compound used as RET kinase inhibitor and application thereof” (TYK MEDICINES, INC., priority 2019, dated 2026).

Changes are numbered by the printed parent chain. pIC50: −log10 of the molar value. Read-outs that look alike come from different tables or passages of the source.

For series [1], the system named is tumor patients with RET fusion and mutation. The conditions noted are these: Phase I, cited from earlier work.
A short description of series [2]: Metabolism test of drugs: plasma pharmacokinetics after intravenous and intragastric administration. The settings on record: SD rats; for CL_obs / AUC(0-inf) / AUC(0-t) / half-life / MRT / Vd / Cmax / Tmax: plasma; for F: PO 10 mg/kg vs IV 2 mg/kg; for AUC(0-inf) / AUC(0-t) / half-life / MRT / Vd / Cmax / Tmax: male, rat; for MRT: read-out: MRTINF_ obs; for Vd: read-out: Vss. It counts as in vivo. On the procedure:
Four small molecule compounds of BLU-667, compound C2, compound C4 and compound C8 were administered to SD rats by intravenous and intragastric administration respectively. Blood samples were collected at different time points to determine the concentration of drugs in plasma after administration and calculate the related pharmacokinetics parameters.
The vehicle of BLU-667, C2, C4 and C8 was 10% NMP+49% PEG400+1% Tween80+40% Water. The specific preparation method was as follows: proper amount of tested samples was weighed, dissolved in 10% NMP+49% PEG400+1% Tween80+40% Water, mixed well by vortex for later use.
LC-MS/MS was used by the analysis department of the experimental organization to detect and analyze the prepared solution of sample for test.
Healthy male SD rats were used in this research. Animal weight: 150-200 g. All animals fasted before administration, and resumed feeding 4 hours after administration.
Time points for blood collection were: • Intravenous administration (groups 1, 3 and 5): 0.0833, 0.25, 0.5, 1, 2, 4, 8, 12 and 24 hours after administration. (±2 min at time point ≤2 hr, ±15 min at other points.) • Oral administration: (groups 2, 4, 6 and 7): 0.25, 0.5, 1, 2, 4, 8, 12 and 24 hours after administration. (±2 m at time point […] at other points.)
About 0.1 mL of blood was collected from each animal through jugular vein every time, and EDTA or heparin sodium was used as anticoagulant. Blood samples were collected and placed on ice, and plasma was separated by centrifugation (centrifugation conditions: 5000 r/min, 6 min, 4° C.).
LC-MS/MS was used by the analysis department of the experimental organization to analyze the plasma samples of rats.
According to the data of blood drug concentration of the drug, the pharmacokinetic parameters AUC0→t, AUC0→∞, MRT0→∞, CMax, TMax, Vss, F, CL and T1/2 as well as their mean and standard deviation of the samples for test were calculated respectively by pharmacokinetic calculation software WinNonlin non-compartment model.
The main pharmacokinetic parameters of BLU-667, compound C2, compound C4 and compound C8 in plasma after intravenous and single oral administration of BLU-667, compound C2, compound C4 and compound C8 in SD rats were shown in Table 3

The next series deals with wild-type RET kinase (Homo sapiens, UniProt P07949). Nature of the series: Enzyme activity test against wild-type RET kinase (33P-ATP filter-binding kinase activity assay). The series is classed as biochemical. The settings on record: ATP Km concentration, 10 concentrations. On the procedure:
A biological activity test experiment was conducted below for some compounds of the above Examples and Comparative Example.
[…]. The biological activity screening of the compounds will be determined repeatedly at 10 concentrations.
Each sample was prepared into a solution with a concentration of 10 mM.
The test compound was dissolved in 100% dimethyl sulfoxide to a specific concentration. Integra Viaflo Assist was used to assist DMSO for (continuous) dilution.
Kinase was added to the newly prepared basic reaction buffer
Adding any desired cofactors to the substrate solution.
Adding wild-type RET kinase into the substrate solution and gently mixing;
Acoustic technology (Echo 550; Nanoliter range) was used to feed the compounds in 100% of dimethyl sulfoxide into the kinase reaction mixture and incubated at room temperature for 20 minutes.
33P-ATP (specific activity 10 Ci/l) was added to the reaction mixture to start the reaction.
Incubated at room temperature for 2 hours
Radioactivity was detected by filter-binding method.
Kinase activity data was expressed as the percentage of remaining kinase activity in the test sample compared to the vehicle (dimethyl sulfoxide) reaction. Prism (GRAPHPAD software) was used to obtain IC50 value and curve-fitting.

A further series addresses T1, Ba/F3-KIF5B-RET cells (Homo sapiens, UniProt P07949).
T1 construct: host or cells: Ba/F3 (BaF3 from RIKEN BRC CELL BANK); the other entry of the earlier key: KIF5B (P33176, Kinesin-1 heavy chain)
T1 sequence (P07949 713-1063 limits assumed): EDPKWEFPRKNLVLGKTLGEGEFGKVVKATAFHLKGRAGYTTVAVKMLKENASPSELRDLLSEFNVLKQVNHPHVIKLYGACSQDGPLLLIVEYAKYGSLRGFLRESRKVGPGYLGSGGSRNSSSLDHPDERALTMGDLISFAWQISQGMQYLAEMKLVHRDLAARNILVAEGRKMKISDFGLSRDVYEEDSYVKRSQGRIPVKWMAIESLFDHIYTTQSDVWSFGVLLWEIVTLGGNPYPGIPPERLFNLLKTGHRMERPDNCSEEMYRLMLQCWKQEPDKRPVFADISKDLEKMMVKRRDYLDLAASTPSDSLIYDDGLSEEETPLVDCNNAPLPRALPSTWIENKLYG
Nature of the series: Cell anti-proliferation experiment (CellTiter-Glo), Ba/F3-KIF5B-RET. It counts as cell-based. The conditions noted are these: cell viability, 72 h. On the procedure: (§1) Ba/F3-KIF5B-RET, Ba/F3-KIF5B-RET-V804L and Ba/F3-KIF5B-RET-V804M cells were constructed by PreceDo Pharmaceuticals Co., Ltd.
(§2) Ba/F3-KIF5B-RET, Ba/F3-KIF5B-RET-V804L and Ba/F3-KIF5B-RET-V804M medium: RPMI-1640+10% FBS+1% P/S.
(§3) A 1000× solution of the compound was prepared with DMSO, the compound was diluted to 20 times final concentration with a growth medium, and […] was added.
(§4) The suspended cells were rotated downward, resuscitated in the growth medium, and then counted with a cell counter. The cell suspension was diluted to the desired concentration in the growth medium. 95p L cell suspension was fed to a 96-well plate. 5 μL of 20× compound was added to the […], and the final DMSO concentration per well was 0.1%; incubated at 37° C. with 5% CO2 for 72 h
(§5) The plate was equilibrated to room temperature before measurement, 50 μl of CellTiter-Glo® reagent was added into each well, mixed on a shaker for 2 minutes, incubated at room temperature for 10 minutes, and recorded with Paradigm.
(§6) Cell viability was analyzed using Graphpad 7.0 software according to the formula Cell viability (CV %)=(RLU compound−RLU blank)/(RLU control−RLU blank)*100%, and the corresponding IC50 data were calculated as shown in Table 2
A general note: In ATP-based viability assays light output follows the ATP content of the culture.

The target in series [3] is T2, Ba/F3-KIF5B-RET-V804M cells (Homo sapiens, UniProt P07949, V804M).
T2 construct: host or cells: Ba/F3 (BaF3 from RIKEN BRC CELL BANK); the other entry of the earlier key: KIF5B (P33176, Kinesin-1 heavy chain)
T2 sequence (P07949 713-1063 V804M limits assumed): T1 sequence (P07949 713-1063 limits assumed) with V92M
Briefly: Cell anti-proliferation experiment (CellTiter-Glo), Ba/F3-KIF5B-RET-V804M. It counts as cell-based. The settings on record: cell viability, 72 h. As for the experimental part: as §1, §2, §3, §4, §5, §6

Series [4] addresses T3, Ba/F3-KIF5B-RET-V804L cells (Homo sapiens, UniProt P07949, V804L).
T3 construct: host or cells: Ba/F3 (BaF3 from RIKEN BRC CELL BANK); the other entry of the earlier key: KIF5B (P33176, Kinesin-1 heavy chain)
T3 sequence (P07949 713-1063 V804L limits assumed): T1 sequence (P07949 713-1063 limits assumed) with V92L
Briefly: Cell anti-proliferation experiment (CellTiter-Glo), Ba/F3-KIF5B-RET-V804L. The series is classed as cell-based. The settings on record: cell viability, 72 h. As for the experimental part: as §1, §2, §3, §4, §5, §6

Where [5] appears, read: PO, versus control compound (BLU-667).

Chain of wild-type RET kinase (P07949 29-1114): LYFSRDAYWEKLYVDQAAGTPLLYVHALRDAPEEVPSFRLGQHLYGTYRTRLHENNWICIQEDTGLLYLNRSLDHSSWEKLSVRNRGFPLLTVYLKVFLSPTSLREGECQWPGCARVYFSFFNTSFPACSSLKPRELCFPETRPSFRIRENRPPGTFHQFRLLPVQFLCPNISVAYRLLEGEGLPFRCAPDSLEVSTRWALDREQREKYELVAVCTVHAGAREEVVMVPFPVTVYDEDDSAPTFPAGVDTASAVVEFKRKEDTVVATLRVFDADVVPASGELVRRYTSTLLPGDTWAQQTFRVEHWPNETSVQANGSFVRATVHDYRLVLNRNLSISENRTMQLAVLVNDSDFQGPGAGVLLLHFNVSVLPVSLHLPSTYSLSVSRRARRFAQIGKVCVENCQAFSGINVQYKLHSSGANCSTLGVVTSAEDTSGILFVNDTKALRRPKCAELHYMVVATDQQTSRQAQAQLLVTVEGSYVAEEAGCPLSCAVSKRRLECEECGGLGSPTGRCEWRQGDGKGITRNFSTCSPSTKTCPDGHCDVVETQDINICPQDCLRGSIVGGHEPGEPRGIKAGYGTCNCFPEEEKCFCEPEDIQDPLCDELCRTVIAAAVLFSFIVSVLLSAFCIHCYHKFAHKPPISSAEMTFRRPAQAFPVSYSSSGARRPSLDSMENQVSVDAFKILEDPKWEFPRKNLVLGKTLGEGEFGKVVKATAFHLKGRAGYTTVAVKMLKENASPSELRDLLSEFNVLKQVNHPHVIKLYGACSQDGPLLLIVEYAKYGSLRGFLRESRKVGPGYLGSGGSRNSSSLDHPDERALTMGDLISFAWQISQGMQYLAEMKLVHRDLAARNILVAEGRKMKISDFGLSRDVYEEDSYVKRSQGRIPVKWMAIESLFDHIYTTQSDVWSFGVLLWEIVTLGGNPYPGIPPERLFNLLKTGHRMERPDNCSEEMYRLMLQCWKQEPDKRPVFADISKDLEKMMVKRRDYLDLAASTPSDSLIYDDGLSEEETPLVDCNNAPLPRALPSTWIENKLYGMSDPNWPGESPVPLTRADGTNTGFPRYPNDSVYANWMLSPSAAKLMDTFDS

Take `CO[C@]1(C(=O)N[C@@H](C)c2ccc(-n3cc(F)cn3)nc2)CC[C@H](c2nc(C)cc(Nc3cc(C)[nH]n3)n2)CC1` [BLU-667, reference compound]: in series [1] (patients with medullary thyroid carcinoma), the ORR is 40%. Further, in series [1] (patients with non-small cell lung cancer), the ORR was 50%. Further, the “overall remission rate (ORR)” value in series [1] (tumor patients with RET fusion and mutation) is listed as 45%. In series [2] (IV, 2 mg/kg), this molecule had a CL_obs of 24.5 mL/min/kg, an AUC(0-inf) of 1410 ng·h/mL, an AUC(0-t) of 1330 ng·h/mL and a half-life of 5.52 h. For the same molecule, in series [2] (IV, 2 mg/kg), the MRT turned out to be 6.1 h and the Vd came to 8.53 L/kg. The same molecule came in with a F in series [2] of 61.14%. In series [2] (PO, 10 mg/kg), the AUC(0-inf) is 4110 ng·h/mL, the AUC(0-t) amounted to 4080 ng·h/mL, the peak level (Cmax) was 632 ng/mL and the time to peak (Tmax) came to 4 h. Moreover, in series [2] (PO, 10 mg/kg), the half-life was 3.36 h and the MRT is 5.08 h.

For `CO[C@]1(C(=O)N[C@@H](C)c2ccc(-n3cc(F)cn3)nc2)CC[C@H](c2nc(Nc3cc(C)[nH]n3)ccc2C#N)CC1` [Compound C2], the negative logarithm of the IC50 (pIC50) on wild-type RET kinase was 8.70. In series [2] (IV, 2 mg/kg), this molecule showed a CL_obs of 8.67 mL/min/kg, an AUC(0-inf) of 3900 ng·h/mL, an AUC(0-t) of 3850 ng·h/mL and a half-life of 4.12 h. In series [2] (IV, 2 mg/kg), the MRT was found to be 4.89 h and the Vd stood at 2.56 L/kg. This molecule had a F in series [2] of 11.96%. For the same molecule, in series [2] (PO, 10 mg/kg), the AUC(0-inf) worked out at 2320 ng·h/mL, the AUC(0-t) was 2300 ng·h/mL, the peak level (Cmax) was 325 ng/mL and the Tmax amounted to 2 h. For the same molecule, in series [2] (PO, 10 mg/kg), the half-life was 3.26 h and the MRT amounted to 6.05 h. The same molecule gave a pIC50 at Ba/F3-KIF5B-RET cells of 7.64. The pIC50 in series [3] is 7.37. The molecule further had a pIC50 in series [4] of 7.77.

In turn, `CO[C@]1(C(=O)N[C@@H](C)c2ccc(-n3cc(F)cn3)nc2)CC[C@H](c2nc(Nc3cc(C)[nH]n3)cc3cccnc32)CC1` [Compound C4] showed a pIC50 at wild-type RET kinase of 8.99. Also, in series [2] (IV, 2 mg/kg), the CL_obs was 7.67 mL/min/kg, the AUC(0-inf) is 4430 ng·h/mL, the AUC(0-t) amounted to 4390 ng·h/mL and the half-life is 4.19 h. In series [2] (IV, 2 mg/kg), the MRT came out at 3.74 h and the Vd was 1.7 L/kg. For the same molecule, the F in series [2] is 49.85%. Besides, in series [2] (setting [5]), the “maximum blood drug concentration (Cmax) increased compared with the control compound” value was 3-4 times and the “plasma exposure amount AUC increased compared with the control compound” value is reported as 2-3 times. Besides, in series [2] (PO, 10 mg/kg), the AUC(0-inf) was 11000 ng·h/mL, the AUC(0-t) amounted to 10900 ng·h/mL, the Cmax was 2460 ng/mL and the Tmax was 2 h. Further, in series [2] (PO, 10 mg/kg), the half-life was 3.18 h and the MRT was determined as 4.3 h. The molecule also had a pIC50 against Ba/F3-KIF5B-RET cells of 8.04. The same molecule had a pIC50 in series [3] of 7.76. This molecule also had a pIC50 in series [4] of 8.15.

In general, AUC(0-inf) refers to total exposure, with the tail of the curve extrapolated. The low end stands for low exposure, the high end for high exposure. The AUC(0-t) is exposure summed from dosing to a finite time, without extrapolation to infinity. The low end stands for low exposure, the high end for high exposure. As usually defined, the half-life is the time needed for the level to fall by half in the phase considered. The Cmax is the highest concentration seen after dosing. As a reminder, the Tmax is the time from dosing to the highest level. As a reminder, the pIC50 is the negative decadic logarithm of the IC50, by convention in mol/L.
